Columns and labels:
Pythium ultimum = test: Amended agar assay; assay type: cell-based; parameters: key to % control Pythium ultimum (% reduction in colony growth compared to the control plate): D: no control detected at this concentration; C: up to 50% control; B: from 50 to 99% control; A: a control of greater than 99%, i.e. no detectable colony growth; settings: potato dextrose agar amended with compound at 2 ppm, 18° C., 2 to 7 days; for inhibition of growth at 2 ppm: Globisporangium ultimum, read-out: % control Pythium ultimum (% reduction in colony growth compared to the control plate)
Procedure: Amended Agar Assay Testing was carried out on potato dextrose agar (PDA) amended with each compound at a test concentration of 2 ppm. Amended agar was poured into three replicate 9 cm petri dishes. Each replicate dish was inoculated in the centre with a 5 mm agar plug taken from the leading edge of a culture aged between 2 and 7 days old; the age of the culture was dependent on the growth rate of the pathogen being tested. The test pathogen was Pythium ultimum. Plates were incubated at 18° C. and the diameter of each colony measured before growth on the fastest growing plate reached the plate edge. This varied between 2 and 7 days depending on the growth rate of test pathogens. The % reduction in colony growth compared to the control plate was calculated. The results are provided in Table 1, in which D represents no control detected at this concentration; C represents up to 50% control; B from 50 to 99% control; and A represents a control of greater than 99%, i.e. no detectable colony growth.

Phytophthora cactorum = test: 96 well plate test; assay type: cell-based; parameters: key to EC50 Phytophthora cactorum: G: no control detected at 2 ppm; F: an EC50 of ≥2 ppm; an EC50 of less than 2 ppm; settings: agar amended to 2, 0.2, 0.02 and 0.002 ppm, 18° C., assessed after 2 to 3 days; for EC50: Phytophthora cactorum
Procedure: Compounds were screened in 96 well plates with 10 compounds per plate. Each compound was screened using agar amended to 2, 0.2, 0.02 and 0.002 ppm, with proline at 50 and 10 ppm and 0.2% DMSO used as controls. Each test concentration and standard was replicated twice on a plate. Compounds were screened against Phytophthora cactorum. The agar used in the test is a 1% potato dextrose agar. 1000 spores/mL agar were added to the appropriate agar.
A ×10 stock solution in 2% DMSO was produced for each dose i.e. 20, 2, 0.2 and 0.02 ppm, and 10 μl of this added to the appropriate wells on the plate. An equivalent amount of 2% DMSO and proline stock at 500 and 100 ppm were added for the controls. To each well 90 μl of the appropriate agar spore suspension was added to give the required final well concentrations. Plates were incubated at room temperature (18° C.) and assessed after 2 to 3 days. The amount of pathogen growth in each well was compared to the DMSO controls and an EC50 concentration was calculated. The results are provided in Table 1 in which G represents no control detected at 2 ppm, F represents an EC50 of ≥2 ppm, and E represents an EC50 of less than 2 ppm.

CCCCC(=O)Nc1cccc(COc2nc3c(Cl)cccc3n2-c2nnnn2C)n1 [Compound 25]
inhibition of growth at 2 ppm (Pythium ultimum): > 99% | EC50 (Phytophthora cactorum): < 2 µg/mL

CC(C)CC(=O)Nc1cccc(COc2nc3c(Br)cccc3n2-c2nnnn2C)n1 [Compound 41]
inhibition of growth at 2 ppm (Pythium ultimum): > 99% | EC50 (Phytophthora cactorum): < 2 µg/mL

CCCCOC(=O)Nc1cccc(COc2nc3c(Cl)cccc3n2-c2nnnn2C)n1 [Compound 13]
inhibition of growth at 2 ppm (Pythium ultimum): > 99% | EC50 (Phytophthora cactorum): < 2 µg/mL

C=CCOc1cccc2c1nc(OCc1cccc(NC(=O)OC(C)(C)C)n1)n2-c1nnnn1C [Compound 7, tert-butyl (6-(((4-(allyloxy)-1-(1-methyl-1H-tetrazol-5-yl)-1H-benzo[d]imidazol-2-yl)oxy)methyl)pyridin-2-yl)carbamate]
inhibition of growth at 2 ppm (Pythium ultimum): > 99% | EC50 (Phytophthora cactorum): < 2 µg/mL

CC(C)COC(=O)Nc1cccc(COc2nc3c(-c4ccccc4)cccc3n2-c2nnnn2C)n1 [Compound 46]
inhibition of growth at 2 ppm (Pythium ultimum): > 99% | EC50 (Phytophthora cactorum): < 2 µg/mL

CC(C)CCC(=O)Nc1cccc(COc2nc3c(Cl)cccc3n2-c2nnnn2C)n1 [Compound 9]
inhibition of growth at 2 ppm (Pythium ultimum): > 99% | EC50 (Phytophthora cactorum): < 2 µg/mL

Cn1nnnc1-n1c(OCc2cccc(NC(=O)c3ccccc3)n2)nc2c(Cl)cccc21 [Compound 31]
inhibition of growth at 2 ppm (Pythium ultimum): > 99% | EC50 (Phytophthora cactorum): < 2 µg/mL

Cn1nnnc1-n1c(OCc2cccc(NC(=O)OC3CCCC3)n2)nc2c(Cl)cccc21 [Compound 17]
inhibition of growth at 2 ppm (Pythium ultimum): > 99% | EC50 (Phytophthora cactorum): < 2 µg/mL

CCCOC(=O)Nc1cccc(COc2nc3c(Cl)cccc3n2-c2nnnn2C)n1 [Compound 16]
inhibition of growth at 2 ppm (Pythium ultimum): > 99% | EC50 (Phytophthora cactorum): < 2 µg/mL

CC(C)COC(=O)Nc1cccc(COc2nc3c(Br)cccc3n2-c2nnnn2C)n1 [Compound 38]
inhibition of growth at 2 ppm (Pythium ultimum): > 99% | EC50 (Phytophthora cactorum): < 2 µg/mL

CCCC(=O)Nc1cccc(COc2nc3c(Cl)cccc3n2-c2nnnn2C)n1 [Compound 12]
inhibition of growth at 2 ppm (Pythium ultimum): > 99% | EC50 (Phytophthora cactorum): < 2 µg/mL

Cn1nnnc1-n1c(OCc2cccc(NC(=O)OC(C)(C)C)n2)nc2c(O)cccc21 [Compound 22, tert-Butyl (6-(((4-hydroxy-1-(1-methyl-1H-tetrazol-5-yl)-1H-benzo[d]imidazol-2-yl)oxy)methyl)pyridin-2-yl)carbamate]
inhibition of growth at 2 ppm (Pythium ultimum): 50 to 99% | EC50 (Phytophthora cactorum): ≥ 2 µg/mL

Cn1nnnc1-n1c(OCc2cccc(NC(=O)COc3ccccc3)n2)nc2c(Br)cccc21 [Compound 36]
inhibition of growth at 2 ppm (Pythium ultimum): > 99% | EC50 (Phytophthora cactorum): < 2 µg/mL

COc1cc(F)cc2c1nc(OCc1cccc(NC(=O)C3CC3)n1)n2-c1nnnn1C [Compound 6]
inhibition of growth at 2 ppm (Pythium ultimum): 50 to 99% | EC50 (Phytophthora cactorum): ≥ 2 µg/mL

CC(C)CCC(=O)Nc1nc(COc2nc3c(Cl)cccc3n2-c2nnnn2C)cs1 [Compound 44]
inhibition of growth at 2 ppm (Pythium ultimum): < 50% | EC50 (Phytophthora cactorum): ≥ 2 µg/mL

Cn1nnnc1-n1c(OCc2cccc(NC(=O)C3CC3)n2)nc2c(Cl)cccc21 [Compound 1, N-(6-(((4-Chloro-1-(1-methyl-1H-tetrazol-5-yl)-1H-benzo[d]imidazol-2-yl)oxy)methyl)pyridin-2-yl)cyclopropanecarboxamide]
inhibition of growth at 2 ppm (Pythium ultimum): > 99% | EC50 (Phytophthora cactorum): < 2 µg/mL

COc1cc(F)cc2c1nc(OCc1cccc(NC(=O)OC(C)(C)C)n1)n2-c1nnnn1C [Compound 4]
inhibition of growth at 2 ppm (Pythium ultimum): > 99% | EC50 (Phytophthora cactorum): < 2 µg/mL

CC(C)CC(=O)Nc1cccc(COc2nc3c(Cl)cccc3n2-c2nnnn2C)n1 [Compound 26]
inhibition of growth at 2 ppm (Pythium ultimum): > 99% | EC50 (Phytophthora cactorum): < 2 µg/mL

Cn1nnnc1-n1c(OCc2cccc(NC(=O)C(F)(F)F)n2)nc2c(Cl)cccc21 [Compound 29]
inhibition of growth at 2 ppm (Pythium ultimum): > 99% | EC50 (Phytophthora cactorum): < 2 µg/mL

CCCOC(=O)Nc1cccc(COc2nc3c(Br)cccc3n2-c2nnnn2C)n1 [Compound 39]
inhibition of growth at 2 ppm (Pythium ultimum): > 99% | EC50 (Phytophthora cactorum): < 2 µg/mL

Cn1nnnc1-n1c(OCc2cccc(NC(=O)CC(F)(F)F)n2)nc2c(Cl)cccc21 [Compound 30]
inhibition of growth at 2 ppm (Pythium ultimum): > 99% | EC50 (Phytophthora cactorum): < 2 µg/mL

CC(C)COC(=O)Nc1cccc(COc2nc3c(Cl)cccc3n2-c2nnnn2C)n1 [Compound 15]
inhibition of growth at 2 ppm (Pythium ultimum): > 99% | EC50 (Phytophthora cactorum): < 2 µg/mL

CCOC(=O)Nc1cccc(COc2nc3c(Cl)cccc3n2-c2nnnn2C)n1 [Compound 14]
inhibition of growth at 2 ppm (Pythium ultimum): > 99% | EC50 (Phytophthora cactorum): ≥ 2 µg/mL

Cn1nnnc1-n1c(OCc2cccc(NC(=O)OC(C)(C)C)n2)nc2c(Cl)cccc21 [Compound 3]
inhibition of growth at 2 ppm (Pythium ultimum): > 99% | EC50 (Phytophthora cactorum): < 2 µg/mL

Cn1nnnc1-n1c(OCc2cccc(NC(=O)C3CCCC3)n2)nc2c(Br)cccc21 [Compound 37]
inhibition of growth at 2 ppm (Pythium ultimum): > 99% | EC50 (Phytophthora cactorum): < 2 µg/mL

CCCCC(=O)Nc1nc(COc2nc3c(Cl)cccc3n2-c2nnnn2C)cs1 [Compound 43]
% control Pythium ultimum (% reduction in colony growth compared to the control plate) (Pythium ultimum): D | EC50 Phytophthora cactorum (Phytophthora cactorum): G

Cn1nnnc1-n1c(OCc2cccc(NC(=O)OC(C)(C)C)n2)nc2c(-c3ccccc3)cccc21 [Compound 45, tert-Buty (6-(((1-(1-methyl-1H-tetrazol-5-yl)-4-phenyl-1H-benzo[d]imidazol-2-yl)oxy)methyl)pyridin-2-yl)carbamate]
inhibition of growth at 2 ppm (Pythium ultimum): > 99% | EC50 (Phytophthora cactorum): < 2 µg/mL

Cn1nnnc1-n1c(OCc2cccc(NC(=O)CC(C)(C)C)n2)nc2c(Cl)cccc21 [Compound 33]
inhibition of growth at 2 ppm (Pythium ultimum): > 99% | EC50 (Phytophthora cactorum): < 2 µg/mL

CCC(=O)Nc1cccc(COc2nc3c(Cl)cccc3n2-c2nnnn2C)n1 [Compound 23, N-(6-(((4-Chloro-1-(1-methyl-1H-tetrazol-5-yl)-1H-benzo[d]imidazol-2-yl)oxy)methyl)pyridin-2-yl)propionamide]
inhibition of growth at 2 ppm (Pythium ultimum): > 99% | EC50 (Phytophthora cactorum): ≥ 2 µg/mL

Cn1nnnc1-n1c(OCc2cccc(NC(=O)OC3CCCC3)n2)nc2c(Br)cccc21 [Compound 40]
inhibition of growth at 2 ppm (Pythium ultimum): > 99% | EC50 (Phytophthora cactorum): < 2 µg/mL

CC(C)COC(=O)Nc1cccc(COc2nc3c(C4CC4)cccc3n2-c2nnnn2C)n1 [Compound 47]
inhibition of growth at 2 ppm (Pythium ultimum): > 99% | EC50 (Phytophthora cactorum): < 2 µg/mL

CC(C)C(=O)Nc1cccc(COc2nc3c(Cl)cccc3n2-c2nnnn2C)n1 [Compound 24]
inhibition of growth at 2 ppm (Pythium ultimum): > 99% | EC50 (Phytophthora cactorum): < 2 µg/mL

CC(C)OC(=O)Nc1cccc(COc2nc3c(Cl)cccc3n2-c2nnnn2C)n1 [Compound 18]
inhibition of growth at 2 ppm (Pythium ultimum): > 99% | EC50 (Phytophthora cactorum): ≥ 2 µg/mL

Cn1nnnc1-n1c(OCc2cccc(NC(=O)C3CCC3)n2)nc2c(Cl)cccc21 [Compound 32]
inhibition of growth at 2 ppm (Pythium ultimum): > 99% | EC50 (Phytophthora cactorum): < 2 µg/mL

CCCCOC(=O)Nc1cccc(COc2nc3c(Br)cccc3n2-c2nnnn2C)n1 [Compound 35]
inhibition of growth at 2 ppm (Pythium ultimum): > 99% | EC50 (Phytophthora cactorum): < 2 µg/mL

Cn1nnnc1-n1c(OCc2cccc(NC(=O)C3CCCC3)n2)nc2c(Cl)cccc21 [Compound 10]
inhibition of growth at 2 ppm (Pythium ultimum): > 99% | EC50 (Phytophthora cactorum): < 2 µg/mL

Cn1nnnc1-n1c(OCc2cccc(NC(=O)OC(C)(C)C)n2)nc2c(Br)cccc21 [Compound 34, tert-Butyl (6-(((4-bromo-1-(1-methyl-1H-tetrazol-5-yl)-1H-benzo[d]imidazol-2-yl)oxy)methyl)pyridin-2-yl)carbamate]
inhibition of growth at 2 ppm (Pythium ultimum): > 99% | EC50 (Phytophthora cactorum): < 2 µg/mL

COc1cc(F)cc2c1nc(OCc1cccc(NC(=O)COc3ccccc3)n1)n2-c1nnnn1C [Compound 5]
inhibition of growth at 2 ppm (Pythium ultimum): > 99% | EC50 (Phytophthora cactorum): < 2 µg/mL

CCC(CC)C(=O)Nc1cccc(COc2nc3c(Cl)cccc3n2-c2nnnn2C)n1 [Compound 27]
inhibition of growth at 2 ppm (Pythium ultimum): > 99% | EC50 (Phytophthora cactorum): < 2 µg/mL

CC(=O)Nc1cccc(COc2nc3c(Cl)cccc3n2-c2nnnn2C)n1 [Compound 28]
inhibition of growth at 2 ppm (Pythium ultimum): 50 to 99% | EC50 (Phytophthora cactorum): ≥ 2 µg/mL

Cn1nnnc1-n1c(OCc2cccc(NC(=O)C(C)(C)C)n2)nc2c(Cl)cccc21 [Compound 19]
inhibition of growth at 2 ppm (Pythium ultimum): > 99% | EC50 (Phytophthora cactorum): < 2 µg/mL

Cn1nnnc1-n1c(OCc2cccc(NC(=O)COc3ccccc3)n2)nc2c(Cl)cccc21 [Compound 2]
inhibition of growth at 2 ppm (Pythium ultimum): > 99% | EC50 (Phytophthora cactorum): < 2 µg/mL

Cc1cccc2c1nc(OCc1cccc(NC(=O)COc3ccccc3)n1)n2-c1nnnn1C [Compound 20]
inhibition of growth at 2 ppm (Pythium ultimum): > 99% | EC50 (Phytophthora cactorum): < 2 µg/mL

COc1cccc2c1nc(OCc1cccc(NC(=O)OC(C)(C)C)n1)n2-c1nnnn1C [Compound 8]
inhibition of growth at 2 ppm (Pythium ultimum): > 99% | EC50 (Phytophthora cactorum): < 2 µg/mL

C=CCOC(=O)Nc1cccc(COc2nc3c(Cl)cccc3n2-c2nnnn2C)n1 [Compound 11]
inhibition of growth at 2 ppm (Pythium ultimum): > 99% | EC50 (Phytophthora cactorum): < 2 µg/mL

— patent US20210206744A1, “BENZIMIDAZOLE COMPOUNDS AS AGRICULTURAL CHEMICALS” (REDAG CROP PROTECTION LTD, priority 2017, published 2021)
